Measurements taken from patent US4336257A, “Novel 2-pyridylbenzimidazole compounds” (Merck & Co., Inc., priority 1980, dated 1982).
Read-outs that look alike come from different tables or passages of the source.

Assays:
[1] = test system: spontaneously hypertensive (SH) or renal hypertensive (RH) rat; assay: antihypertensive activity in spontaneously hypertensive (SH) or renal hypertensive (RH) rat, model not specified; type: in vivo; conditions: model not marked
Description: (§1) The xanthine oxidase activity of representative compounds was determined using an in vitro test--the antihypertensive activity was determined by administration of said compounds to a spontaneously hypertensive (SH) or renal hypertensive (RH) rat. The X.O. inhibition is expressed as % inhibition of the enzyme at a present compound concentration of 2×10^-5 M.

xanthine oxidase [2] = biological target: T1, xanthine oxidase (Bos taurus, UniProt P80457); assay: in vitro xanthine oxidase (X.O.) inhibition; type: biochemical
T1 sequence (P80457 whole entry): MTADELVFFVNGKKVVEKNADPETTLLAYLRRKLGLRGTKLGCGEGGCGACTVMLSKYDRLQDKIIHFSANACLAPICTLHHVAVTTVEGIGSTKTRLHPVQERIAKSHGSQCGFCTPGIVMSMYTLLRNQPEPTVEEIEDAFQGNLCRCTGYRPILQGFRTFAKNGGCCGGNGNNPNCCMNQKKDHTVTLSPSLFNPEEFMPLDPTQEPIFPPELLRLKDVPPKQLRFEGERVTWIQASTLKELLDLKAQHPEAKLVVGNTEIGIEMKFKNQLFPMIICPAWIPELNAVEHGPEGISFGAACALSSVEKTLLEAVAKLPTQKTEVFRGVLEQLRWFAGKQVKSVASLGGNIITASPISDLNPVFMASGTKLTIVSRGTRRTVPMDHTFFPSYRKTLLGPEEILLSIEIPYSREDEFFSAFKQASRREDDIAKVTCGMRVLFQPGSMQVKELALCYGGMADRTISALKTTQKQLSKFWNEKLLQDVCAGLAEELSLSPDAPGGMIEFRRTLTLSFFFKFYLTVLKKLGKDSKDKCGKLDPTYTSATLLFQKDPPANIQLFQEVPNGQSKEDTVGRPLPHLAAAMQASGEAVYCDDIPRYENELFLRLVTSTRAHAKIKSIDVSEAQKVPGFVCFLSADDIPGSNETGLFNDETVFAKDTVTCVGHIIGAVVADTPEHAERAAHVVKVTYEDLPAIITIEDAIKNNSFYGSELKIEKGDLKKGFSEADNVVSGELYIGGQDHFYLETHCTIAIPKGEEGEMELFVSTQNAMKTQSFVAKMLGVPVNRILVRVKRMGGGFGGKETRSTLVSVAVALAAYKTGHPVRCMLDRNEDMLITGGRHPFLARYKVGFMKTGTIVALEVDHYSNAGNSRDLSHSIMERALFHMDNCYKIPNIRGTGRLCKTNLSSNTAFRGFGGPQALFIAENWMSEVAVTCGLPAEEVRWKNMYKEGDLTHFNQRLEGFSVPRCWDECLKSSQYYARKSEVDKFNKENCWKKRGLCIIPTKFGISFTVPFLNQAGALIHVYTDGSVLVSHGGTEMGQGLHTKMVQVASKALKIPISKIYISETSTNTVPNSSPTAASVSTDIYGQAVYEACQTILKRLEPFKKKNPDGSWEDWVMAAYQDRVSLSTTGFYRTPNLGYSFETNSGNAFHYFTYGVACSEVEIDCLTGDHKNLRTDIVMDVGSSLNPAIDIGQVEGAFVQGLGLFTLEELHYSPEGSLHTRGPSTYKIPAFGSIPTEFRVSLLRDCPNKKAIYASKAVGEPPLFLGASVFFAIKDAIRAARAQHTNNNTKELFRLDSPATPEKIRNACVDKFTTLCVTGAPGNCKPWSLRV
Description: as §1, with “M. | .circle.* using in vitro test as described in J. Med. Chem. 20,” for “M.”

[3] = test system: spontaneously hypertensive (SH) rat; assay: antihypertensive activity in spontaneously hypertensive (SH) rat; type: in vivo; conditions: SH rat (footnote 1)
Description: as §1

xanthine oxidase [4] = biological target: T1, xanthine oxidase; assay: in vitro xanthine oxidase (X.O.) inhibition; type: biochemical; conditions: Table 2; amount 1.5 × 10^-5 m; read-out: X.O.I.
[5] = test system: renal hypertensive (RH) rat; assay: antihypertensive activity in renal hypertensive (RH) rat; type: in vivo; conditions: RH rat (footnote 2)
Description: as §1

[6] = Table 1, compound concentration 2×10^-5 M, read-out: % X.O. Inhibition
[7] = Table 2, amount 2 × 10^-5 M, read-out: X.O.I.

Row | inhibition at 20 µM (xanthine oxidase [2]; [6]) [%] | Compound | A.H. Activity [3] | other results
1 | 23 | c1cncc(-c2nc3cnccc3[nH]2)c1 | – | A.H. Activity [1]: no
2 | 8 | c1cnc2[nH]c(-c3ccncc3)nc2c1 | yes | –
3 | 0 | Cc1cnc(-c2cccnc2)[nH]1 | yes | –
4 | 5 | c1cncc(-c2nc3cccnc3[nH]2)c1 | yes | –
5 | – | Clc1ccc2[nH]c(-c3cccnc3)nc2c1 | – | inhibition at 20 µM (xanthine oxidase [2]; [7]): 0%
6 | 56 | Clc1cc2nc(-c3ccncc3)[nH]c2cc1Cl [drawing 7] | – | A.H. Activity [1]: no
7 | – | Clc1cc2nc(-c3ccncc3)[nH]c2cc1Cl [drawing 14] | – | inhibition at 15 µM (xanthine oxidase [4]): 50%
8 | – | Clc1ccc2[nH]c(-c3ccncc3)nc2c1 [drawing 13] | – | inhibition at 20 µM (xanthine oxidase [2]; [7]): 11%
9 | 11 | Clc1ccc2[nH]c(-c3ccncc3)nc2c1 [drawing 6] | – | A.H. Activity [5]: yes
10 | 4 | Cc1cnc(-c2ccncc2)[nH]1 | yes | –
11 | 62 | c1cc(-c2nc3cnccc3[nH]2)ccn1 | yes | –
